According to patent publication US20100063162A1, “METHOD FOR PREDICTING EFFICACY OF RAR-ALPHA AGONIST” (TAIHO PHARMACEUTICAL CO., LTD., priority 2005, published 2010):

Tests used:
[1] = test system: HCC-E cells; test: Survival after spleen inoculation (liver metastasis model), HCC-E; assay type: in vivo, nude mouse; conditions: oral every day for 4 weeks, nude mice
Source text: (§1) Further, correlation between the cofactor balance and survival advantage was examined by using cancer cell lines for which survival were evaluatable. When cells of the colorectal cancer cell line CAC, having an AIB1/SP110b ratio of 0.08 so as to be dominant in SP110b, and the aforementioned HCC-E cells are inoculated in the nude mouse spleen, dissemination easily occurs in the liver, resulting in formation of a metastatic condition in the liver. After 1×10^6 of CAC or HCC-E cells were transplanted, and TAC-101 was orally administered every day for 4 weeks, the survival time of each model animal was observed. In the CAC model, in which SP110b was dominant, prolongation of the survival time was only 26%, whereas in the HCC-E model, in which the class of the p160 family molecule was dominant, nearly […] longer survival time prolongation of 81% was confirmed. Further, this effect in the HCC-E model was also statistically significant (P<0.001).

[2] = test system: HCC-C; test: Orthotopic hepatoma model, tumor weight in the liver, HCC-C; assay type: in vivo, nude mouse; conditions: oral everyday, 3 weeks, nude mice
Protocol: (§2) Accordingly, an experiment of therapeutic treatment was performed to examine susceptibility to RAR-α agonists. The cultured liver cancer cells were transplanted in an amount of 1×10^6 cells into the outer left lobes of the livers in nude mice (BALB/cA Jcl-nu, Clea Japan, Inc.), TAC-101 as an RAR-α agonist was orally administered everyday as a 0.5% hydroxypropylmethylcellulose suspension (Shin-Etsu Chemical Co., Ltd.), and then the weights of tumors formed in the livers were measured 3 weeks later to obtain mean inhibition rates. […] Further, it was also observed by two-sided Student's t test that these antitumor effects were statistically significant inhibitory action.

[3] = test system: HCC-E; test: Orthotopic hepatoma model, tumor weight in the liver, HCC-E; assay type: in vivo, nude mouse; conditions: oral everyday, 3 weeks, nude mice
Protocol: as §2

[4] = test system: RAR-α; test: RAR-α transcription activity test (pRARE-SEAP reporter) in hepatocellular carcinoma cells; assay type: cell-based, human; conditions: for RAR response (T/C %): 24 hours, untreated cells = 100
Protocol: The test for confirming the RAR-α transcription activity was performed as follows.
Hepatocellular carcinoma cells of each type transfected with a reporter plasmid containing an RAR-α binding sequence with the SEAP gene in a downstream region (pRARE-SEAP-TA-vector, Clontech) were treated with an RAR-α agonist, and then the SEAP alkaline phosphatase activity in the culture supernatant was measured. The cultured hepatocellular carcinoma cells were transfected with the RARE reporter plasmid mixed in a transfection reagent prepared by using the culture broth and FuGENE6 solution at a ratio of 100:6 and cultured for 24 hours. The culture broth was replaced with the one containing TAC-101 as an RAR-α agonist, and the cells were cultured for further 24 hours. Then, the culture supernatant was collected, and transcription activity was confirmed by using an alkaline phosphatase activity measurement reagent (SEAP Detection Kit, Clontech).

[5] = test system: liver cancer; conditions: animal model of liver cancer; cited from earlier work
[6] = test system: HCC-D; test: Orthotopic hepatoma model, tumor weight in the liver, HCC-D; assay type: in vivo, nude mouse; conditions: oral everyday, 3 weeks, nude mice
Protocol: as §2

[7] = test system: colorectal cancer cell line CAC; test: Survival after spleen inoculation (liver metastasis model), CAC; assay type: in vivo, nude mouse; conditions: oral every day for 4 weeks, nude mice
Source text: as §1

[8] = test system: human liver cancer; conditions: phase II study; cited from earlier work

In the case of `C[Si](C)(C)c1cc(C(=O)Nc2ccc(C(=O)O)cc2)cc([Si](C)(C)C)c1` [TAC-101, 4-[3,5-Bis(trimethylsilyl)benzamido]benzoic acid], the “Increase of life span (%)” value [1] is reported as 81%, the “Inhibition (%) of tumor growth (tumor weight, mean inhibition rate)” value (from here on “Inhibition (%) of tumor growth”) [2] is reported as 81% and the “Inhibition (%) of tumor growth” value [3] is reported as 67%. For the same molecule, the “RAR response (T/C %)” value ([4]; HCC-A cells, TAC-101 0.3 μM) was 142%, the “RAR response (T/C %)” value ([4]; HCC-A cells, TAC-101 1 μM) was 110% and the “RAR response (T/C %)” value ([4]; HCC-A cells, TAC-101 3 μM) was 143%. For the same molecule, the “RAR response (T/C %)” value ([4]; HCC-B cells, TAC-101 0.3 μM) was 180%, the “RAR response (T/C %)” value ([4]; HCC-B cells, TAC-101 1 μM) was 188% and the “RAR response (T/C %)” value ([4]; HCC-B cells, TAC-101 3 μM) was 146%. The “RAR transcription activity induced by TAC-101 (in words)” value (“RAR transcription activity induced” for short) ([4]; HCC-C cells) was “high”, the “RAR response (T/C %)” value ([4]; HCC-C cells, TAC-101 0.3 μM) was 342% and the “RAR response (T/C %)” value ([4]; HCC-C cells, TAC-101 1 μM) was 497%. For the same molecule, the “RAR response (T/C %)” value ([4]; HCC-C cells, TAC-101 3 μM) was 285%, the “RAR transcription activity induced” value ([4]; HCC-D cells) was “weak” and the “RAR response (T/C %)” value ([4]; HCC-D cells, TAC-101 0.3 μM) was 161%. The “RAR response (T/C %)” value ([4]; HCC-D cells, TAC-101 1 μM) was 161%, the “RAR response (T/C %)” value ([4]; HCC-D cells, TAC-101 3 μM) was 168% and the “RAR transcription activity induced” value ([4]; HCC-E cells) was “high”. For the same molecule, the “RAR response (T/C %)” value ([4]; HCC-E cells, TAC-101 0.3 μM) was 476%, the “RAR response (T/C %)” value ([4]; HCC-E cells, TAC-101 1 μM) was 482% and the “RAR response (T/C %)” value ([4]; HCC-E cells, TAC-101 3 μM) was 259%. For the same molecule, the “antitumor activity (in words)” value [5] was “antitumor activity of TAC-101 was observed”, the “Inhibition (%) of tumor growth” value [6] was −3% and the “therapeutic effect (in words)” value [6] was “no therapeutic effect was observed”. For the same molecule, the “Increase of life span (%)” value [7] was 26% and the “prevention of tumor progression” value [8] was 43%.
